From EP4745134A1 (Jiangsu Yahong Meditech Co., Ltd., priority 2023, dated 2025)
Read-outs that look alike come from different tables or passages of the source.

Experiments:
PRMT5-MTA = PRMT5-MTA (Homo sapiens, UniProt O14744); assay: Enzymatic inhibitory activity against PRMT5-MTA (AlphaScreen); assay type: biochemical
Summary of the method: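 PRMT5/[…] (1 nM) was preincubated for 30 min at room temperature with 1 µM […] and 2.5 µM SAM, then exposed to compound (10-point, 3-fold from 1000 nM) for 15 min at 23 °C. Histone H4 substrate (5 nM) was added and reacted for 45 min at 23 °C. Symmetric dimethyl-R3 H4 was detected by AlphaScreen and IC50 calculated.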

HCT116 MTAP KO cells = assay: Inhibitory activity against cell proliferation (CellTiter Glo, 6 days), HCT116 MTAP KO; assay type: cell-based; details: for IC50: Homo sapiens, HCT-116, 144 h; for Selectivity HCT 116-WT/ HCT116 MTAP KO: ratio of IC50 HCT116-WT / HCT116 MTAP KO
Summary of the method: (§1)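 HCT116 wild-type or MTAP-knockout cells (250/well, McCoy's 5A + 10% FBS) treated after overnight culture with 8-point 4-fold dilutions from 10000 nM for 6 days at 37 °C. Viability read by CellTiter Glo luminescence on day 7; IC50 calculated against DMSO controls.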

HCT116-WT cells = assay: Inhibitory activity against cell proliferation (CellTiter Glo, 6 days), HCT116-WT; assay type: cell-based; details: 144 h
Summary of the method: as §1

[1] = HCT116 MTAP KO cells, 6 days, CellTiter Glo, read-out: HCT116 MTAP KO IC50
[2] = HCT116-WT cells, 6 days, CellTiter Glo, read-out: HCT116-WT IC50

PRMT5-MTA, sequence (O14744 whole entry): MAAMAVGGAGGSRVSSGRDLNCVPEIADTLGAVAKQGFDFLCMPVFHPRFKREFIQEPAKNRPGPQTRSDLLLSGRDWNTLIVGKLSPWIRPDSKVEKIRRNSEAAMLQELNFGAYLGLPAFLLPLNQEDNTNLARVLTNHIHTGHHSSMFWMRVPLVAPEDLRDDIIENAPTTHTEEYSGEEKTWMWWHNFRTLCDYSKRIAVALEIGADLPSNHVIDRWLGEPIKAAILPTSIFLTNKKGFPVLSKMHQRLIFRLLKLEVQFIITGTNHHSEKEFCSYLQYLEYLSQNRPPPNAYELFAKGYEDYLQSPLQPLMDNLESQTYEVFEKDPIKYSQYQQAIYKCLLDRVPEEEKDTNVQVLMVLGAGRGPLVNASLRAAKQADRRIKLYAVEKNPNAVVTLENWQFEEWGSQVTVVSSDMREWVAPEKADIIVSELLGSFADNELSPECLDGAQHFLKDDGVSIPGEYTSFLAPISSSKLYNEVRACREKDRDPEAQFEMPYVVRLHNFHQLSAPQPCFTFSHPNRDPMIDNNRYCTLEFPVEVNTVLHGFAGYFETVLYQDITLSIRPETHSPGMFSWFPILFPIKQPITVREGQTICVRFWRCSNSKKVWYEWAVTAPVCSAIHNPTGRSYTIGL
PRMT5-MTA, sequence (Q9BQA1 whole entry partner): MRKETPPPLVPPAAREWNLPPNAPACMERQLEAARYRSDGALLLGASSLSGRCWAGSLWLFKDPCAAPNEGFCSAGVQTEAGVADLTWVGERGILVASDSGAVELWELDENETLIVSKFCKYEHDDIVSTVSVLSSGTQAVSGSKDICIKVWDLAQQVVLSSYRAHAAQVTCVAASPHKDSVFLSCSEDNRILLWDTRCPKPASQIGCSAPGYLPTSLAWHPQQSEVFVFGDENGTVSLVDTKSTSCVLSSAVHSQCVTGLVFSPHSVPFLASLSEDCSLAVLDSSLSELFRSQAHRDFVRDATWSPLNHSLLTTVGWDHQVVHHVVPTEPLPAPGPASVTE

Row | SMILES | IC50 (PRMT5-MTA; read-out: IC50) | IC50 (HCT116 MTAP KO cells; [1]) | Selectivity HCT 116-WT/ HCT116 MTAP KO (HCT116 MTAP KO cells) | IC50 (HCT116-WT cells; [2]) | IC50 (PRMT5-MTA) | IC50 (HCT116 MTAP KO cells; read-out: HCT116 MTAP KO IC50 (nM)) | IC50 (HCT116-WT cells; read-out: HCT116-WT IC50 (nM))
1 | Cc1cc2cc(C(=O)N(Cc3ccc(Br)cn3)N(c3ncccn3)C3CC3)ccc2nc1N [Example 82, 2-amino-N-((5-bromopyridin-2-yl)methyl)-N'-cyclopropyl-3-methyl-N'-(pyrimidin-2-yl)quinoline-6-carbohydrazide] | 0.0022 µM | 16 nM | 17.63 | 282 nM | – | – | –
2 | Cc1cc2cc(C(=O)N(Cc3ccc(-c4cnn(C5CC5)c4)cn3)N(C)c3ncccn3)ccc2nc1N [Example 192, 2-amino-N-((5-(1-cyclopropyl-1H-pyrazol-4-yl)pyridin-2-yl)methyl)-N',3-dimethyl -N'-(pyrimidin-2-yl)quinoline-6-carbohydrazide] | 0.0021 µM | 44 nM | 27.66 | 1220 nM | – | – | –
3 | COc1ccnc(N(C)N(Cc2ccc(C(F)(F)F)cn2)C(=O)c2ccc3nc(N)c(C)cc3c2)n1 [Example 76, 2-amino-N'-(4-methoxypyrimidin-2-yl)-N',3-dimethyl-N-((5-(trifluoromethyl)pyridin-2-yl)methyl)quinoline-6-carbohydrazide] | 0.0016 µM | 98 nM | 21.94 | 2150 nM | – | – | –
4 | Cc1cc2cc(C(=O)N(Cc3ccc(C(F)(F)F)cn3)N(C)c3c(F)ccc4nccnc34)ccc2nc1N [Example 125, 2-amino-N'-(6-fluoroquinoxalin-5-yl)-N',3-dimethyl-N-((5-(trifluoromethyl)pyridin-2-yl)methyl)quinoline-6-carbohydrazide] | 0.0017 µM | 84 nM | 27.54 | 2310 nM | – | – | –
5 | Cc1cc2cc(C(=O)N(Cc3ccc(-c4cncc(C(F)(F)F)c4)cn3)N(C)c3ncccn3)ccc2nc1N [Example 175, 2-amino-N',3-dimethyl-N'-(pyrimidin-2-yl)-N-((5'-(trifluoromethyl)-[3,3'-bipyridine]-6-yl)methyl)quinoline-6-carbohydrazide] | 0.0033 µM | 116 nM | 18.95 | 2200 nM | – | – | –
6 | Cc1cc2nc(N)c3cnn(C)c3c2cc1C(=O)N1C[C@@H](C)CN1c1ncccc1F (single isomer, unassigned) [Example 464] | 0.0031 µM | 17 nM | 64.06 | 1090 nM | – | – | –
7 | COc1ncc(F)cc1-c1ccc(CN(C(=O)c2ccc3nc(N)c(C)cc3c2)N(C)c2ncccn2)nc1 [Example 161, 2-amino-N-((5'-fluoro-2'-methoxy-[3,3'-bipyridine]-6-yl)methyl)-N',3-dimethyl-N'-(pyrimidin-2-yl)quinoline-6-carbohydrazide] | 0.0017 µM | 87 nM | 20.48 | 1780 nM | – | – | –
8 | Cc1cc2cc(C(=O)N(Cc3ccc(Br)cn3)N(C)c3ncccc3C(F)(F)F)ccc2nc1N [Example 60, 2-amino-N-((5-bromopyridin-2-yl)methyl)-N',3-dimethyl-N'-(3-(trifluoromethyl)pyridin-2-yl)quinoline-6-carbohydrazide] | 0.0023 µM | 60 nM | 11.80 | 708 nM | – | – | –
9 | Cc1cc2nc(N)c3cnn(C)c3c2cc1C(=O)N1CC2(CC2)CN1c1ncccc1F [Example 366, (4-amino-1,7-dimethyl-1H-pyrazolo[4,3-c]quinolin-8-yl)(6-(3-fluoropyridin-2-yl)-5,6-diazaspiro[2.4]heptan-5-yl)methanone] | 0.0079 µM | 7.7 nM | 41.43 | 319 nM | – | – | –
10 | Cc1cc2nc(N)c3cnn(C)c3c2cc1C(=O)N1CC(C)CN1c1ncc(-c2cncs2)cc1F (stereo not shown) [Example 481, (4-amino-1,7-dimethyl-1H-pyrazolo[4,3-c]quinolin-8-yl)(2-(3-fluoro-5-(thiazol-5-yl)pyridin-2-yl)-4-methylpyrazolidin-1-yl)methanone] | 0.0037 µM | 15 nM | 47.20 | 708 nM | – | – | –
11 | Cc1cc2nc(N)c3cnn(C)c3c2cc1C(=O)N(C)N1CCc2ccccc21 [Example 279] | – | – | – | – | 0.0043 µM | 284 nM | > 10000 nM
12 | COC1CN(C(=O)c2cc3c(cc2Cl)nc(N)c2cnn(C)c23)N(c2cccc(F)n2)C1 (stereo not shown) [Example 448, (4-amino-7-chloro-1-methyl-1H-pyrazolo [4,3-c]quinolin-8-yl)(2-(6-fluoropyridin-2-yl)-4-methoxypyrazolidin-1-yl)methanone] | 0.0051 µM | 27 nM | 21.70 | 586 nM | – | – | –
13 | C=C1CN(C(=O)c2cc3c(cc2Cl)nc(N)c2cnn(C)c23)N(c2ncccc2F)C1 [Example 433, (4-amino-7-chloro-1-methyl-1H-pyrazolo [4,3-c]quinolin-8-yl)(2-(3-fluoropyridin-2-yl)-4-methylenepyrazolidin-1-yl)methanone] | 0.0038 µM | 33 nM | 33.64 | 1110 nM | – | – | –
14 | Cc1cc2nc(N)c3cnn(C)c3c2cc1C(=O)N1CC(C)CN1c1ccccc1C(F)(F)F (stereo not shown) [Example 378, (4-amino-1,7-dimethyl-1H-pyrazolo[4,3-c]quinolin-8-yl)(4-methyl-2-(2-(trifluoromethyl)phenyl)pyrazolidin-1-yl)methanone] | 0.0066 µM | 316 nM | 21.39 | 6760 nM | – | – | –
15 | Cc1cc2nc(N)c3cnn(C)c3c2cc1C(=O)N1CC(C)CN1c1cccc(Br)n1 (stereo not shown) [Example 404, (4-amino-1,7-dimethyl-1H-pyrazolo[4,3-c]quinolin-8-yl)(2-(6-bromopyridin-2-yl) -4-methylpyrazolidin-1-yl)methanone] | 0.0066 µM | 4.6 nM | 24.78 | 114 nM | – | – | –
16 | Cc1cc2cc(C(=O)N(Cc3ccc(-c4ccsc4)cn3)N(C)c3ncccn3)ccc2nc1N [Example 201, 2-amino-N',3-dimethyl-N'-(pyrimidin-2-y 1)-N-((5-(thien-3-yl)pyridin-2-yl)methyl) quinoline-6-carbohydrazide] | 0.0021 µM | 51 nM | 24.25 | 1240 nM | – | – | –
17 | CC1CN(C(=O)c2cc3c(cc2Cl)nc(N)c2cnn(C)c23)N(c2cccc(F)c2F)C1 (stereo not shown) [Example 402, (4-amino-7-chloro-1-methyl-1H-pyrazolo [4,3-c]quinolin-8-yl)(2-(2,3-difluorophenyl)-4-methylpyrazolidin-1-yl)methanone] | 0.0064 µM | 24 nM | 23.71 | 569 nM | – | – | –
18 | Cn1ncc2c(N)nc3cc(Cl)c(C(=O)N4CC(C)(F)CN4c4ncc(Cl)cc4F)cc3c21 (stereo not shown) [Example 421, (4-amino-7-chloro-1-methyl-1H-pyrazolo [4,3-c]quinolin-8-yl)(2-(5-chloro-3-fluoropyridin-2-yl)-4-fluoro-4-methylpyrazolidin-1-yl)methanone] | 0.0033 µM | 29 nM | 23.07 | 669 nM | – | – | –
19 | Cc1cc2nc(N)c3cnn(C)c3c2cc1C(=O)N1CC(C)(O)CN1c1ncccc1F (stereo not shown) [Example 427, (4-amino-1,7-dimethyl-1H-pyrazolo[4,3-c]quinolin-8-yl)(2-(3-fluoropyridin-2-yl)-4-hydroxy-4-methylpyrazolin-1-yl)methanone] | 0.0062 µM | 235 nM | >42.55 | > 10000 nM | – | – | –
20 | C#Cc1cnc(N2CC(C)CN2C(=O)c2cc3c(cc2C)nc(N)c2cnn(C)c23)c(F)c1 (stereo not shown) [Example 494, (4-amino-1,7-dimethyl-1H-pyrazolo[4,3-c]quinolin-8-yl)(2-(5-ethynyl-3-fluoropyridin-2-yl)-4-methylpyrazolidin-1-yl)methanone] | 0.0046 µM | 29 nM | 34.62 | 1000 nM | – | – | –
21 | Cc1cc2cc(C(=O)N(Cc3ccc(C4CC4)cn3)N(C)c3ncccn3)ccc2nc1N [Example 153, 2-amino-N-((5-cyclopropylpyridin-2-yl)methyl)-N',3-dimethyl-N'-(pyrimidin-2-yl)quinoline-6-carbohydrazide] | 0.0016 µM | 20 nM | 52.80 | 1060 nM | – | – | –
22 | Cc1cc2cc(C(=O)N(Cc3ccc(-c4scnc4C)cn3)N(C)c3nccc4nccnc34)ccc2nc1N [Example 185, 2-amino-N',3-dimethyl-N-((5-(4-methylthiazol-5-yl)pyridin-2-yl)methyl)-N'-(pyrido[3,4-b]pyrazin-5-yl)quinoline-6-carbohydrazide] | 0.0047 µM | 7.5 nM | 17.07 | 128 nM | – | – | –
23 | Cc1cc2nc(N)c3cnn(C)c3c2cc1C(=O)N1CCCN1c1ncccc1F [Example 342, (4-amino-1,7-dimethyl-1H-pyrazolo[4,3-c]quinolin-8-yl)(2-(3-fluoropyridin-2-yl)pyrazolidin-1-yl)methanone] | 0.0038 µM | 100 nM | 67.95 | 6800 nM | – | – | –
